The supplement of paper PMC10307832

Key:
Assay in all cases: relative viability (nuclei count vs DMSO), 5 days (fraction); higher = more cells survive
BEN = tested on: BEN
Method in brief: (§1)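 Relative viability divides the nuclei count in treated wells by that in vehicle wells. Lung cancer cell lines were seeded in 1536-well plates, dosed by pin tool the next day, and fixed and stained after 5 days in one step with final 0.05% Triton X-100, 1% formaldehyde and 1 ug/ml Hoechst. Dosing was a single drug or a fixed anchor-drug dose plus five library-drug doses (not always all listed) in √10 steps, and values are medians of duplicate plates imaged at 4×.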

COR-L 105 = tested on: COR-L 105
Method in brief: as §1

EKVX = tested on: EKVX
Method in brief: as §1

EMC-BAC-2 = tested on: EMC-BAC-2
Method in brief: as §1

EPLC-272H = tested on: EPLC-272H
Method in brief: as §1

HCC-78 = tested on: HCC-78
Method in brief: as §1

HCC-827 = tested on: HCC-827
Method in brief: as §1

LCLC-97TM1 = tested on: LCLC-97TM1
Method in brief: as §1

LK-2 = tested on: LK-2
Method in brief: as §1

LOU-NH91 = tested on: LOU-NH91
Method in brief: as §1

LU99A = tested on: LU99A
Method in brief: as §1

NCI-H1563 = tested on: NCI-H1563
Method in brief: as §1

NCI-H1650 = tested on: NCI-H1650
Method in brief: as §1

NCI-H1792 = tested on: NCI-H1792
Method in brief: as §1

NCI-H2087 = tested on: NCI-H2087
Method in brief: as §1

NCI-H2126 = tested on: NCI-H2126
Method in brief: as §1

NCI-H358 = tested on: NCI-H358
Method in brief: as §1

NCI-H522 = tested on: NCI-H522
Method in brief: as §1

NCI-H727 = tested on: NCI-H727
Method in brief: as §1

SK-MES-1 = tested on: SK-MES-1
Method in brief: as §1

SW 1573 = tested on: SW 1573
Method in brief: as §1

SW 900 = tested on: SW 900
Method in brief: as §1

**Q.** Which results are given for `COCC1(CO)C(=O)C2CCN1CC2` (configuration not stated) [PRIMA-1MET] + N=C(N)NC(=N)NCCc1ccccc1 [Phenformin] (partner 250 µM)?
**A.** relative viability (BEN; first compound 0.2 µM): 0.268; relative viability (BEN; first compound 0.6325 µM): 0.275; relative viability (BEN; first compound 6.325 µM): 0.217; relative viability (BEN; first compound 20 µM): 0.224; relative viability (COR-L 105; first compound 0.2 µM): 0.547; relative viability (COR-L 105; first compound 0.6325 µM): 0.438; relative viability (COR-L 105; first compound 2 µM): 0.373; relative viability (COR-L 105; first compound 6.325 µM): 0.459; relative viability (COR-L 105; first compound 20 µM): 0.124; relative viability (EKVX; first compound 0.2 µM): 0.219; relative viability (EKVX; first compound 0.6325 µM): 0.221; relative viability (EKVX; first compound 6.325 µM): 0.217; relative viability (EKVX; first compound 20 µM): 0.222; relative viability (EMC-BAC-2; first compound 0.2 µM): 0.642; relative viability (EMC-BAC-2; first compound 0.6325 µM): 0.564; relative viability (EMC-BAC-2; first compound 6.325 µM): 0.609; relative viability (EMC-BAC-2; first compound 20 µM): 0.352; relative viability (EPLC-272H; first compound 2 µM): 0.286; relative viability (EPLC-272H; first compound 6.325 µM): 0.314; relative viability (EPLC-272H; first compound 20 µM): 0.085; relative viability (HCC-78; first compound 0.2 µM): 0.7; relative viability (HCC-78; first compound 0.6325 µM): 0.648; relative viability (HCC-78; first compound 6.325 µM): 0.658; relative viability (HCC-78; first compound 20 µM): 0.599; relative viability (HCC-827; first compound 0.2 µM): 0.433; relative viability (HCC-827; first compound 0.6325 µM): 0.416; relative viability (HCC-827; first compound 2 µM): 0.344; relative viability (HCC-827; first compound 6.325 µM): 0.367; relative viability (HCC-827; first compound 20 µM): 0.372; relative viability (LCLC-97TM1; first compound 0.2 µM): 0.436; relative viability (LCLC-97TM1; first compound 0.6325 µM): 0.437; relative viability (LCLC-97TM1; first compound 2 µM): 0.484; relative viability (LCLC-97TM1; first compound 6.325 µM): 0.448; relative viability (LCLC-97TM1; first compound 20 µM): 0.347; relative viability (LK-2; first compound 0.2 µM): 0.45; relative viability (LK-2; first compound 0.6325 µM): 0.41; relative viability (LK-2; first compound 2 µM): 0.228; relative viability (LK-2; first compound 6.325 µM): 0.14; relative viability (LK-2; first compound 20 µM): 0.124; relative viability (LOU-NH91; first compound 0.2 µM): 0.724; relative viability (LOU-NH91; first compound 0.6325 µM): 0.667; relative viability (LOU-NH91; first compound 2 µM): 0.554; relative viability (LOU-NH91; first compound 6.325 µM): 0.712; relative viability (LOU-NH91; first compound 20 µM): 0.392; relative viability (LU99A; first compound 0.2 µM): 0.646; relative viability (LU99A; first compound 0.6325 µM): 0.736; relative viability (LU99A; first compound 2 µM): 0.734; relative viability (LU99A; first compound 6.325 µM): 0.831; relative viability (LU99A; first compound 20 µM): 0.0482; relative viability (NCI-H1563; first compound 0.2 µM): 0.686; relative viability (NCI-H1563; first compound 0.6325 µM): 0.673; relative viability (NCI-H1563; first compound 2 µM): 0.668; relative viability (NCI-H1563; first compound 6.325 µM): 0.719; relative viability (NCI-H1563; first compound 20 µM): 0.302; relative viability (NCI-H1650; first compound 0.2 µM): 0.569; relative viability (NCI-H1650; first compound 0.6325 µM): 0.443; relative viability (NCI-H1650; first compound 2 µM): 0.453; relative viability (NCI-H1650; first compound 6.325 µM): 0.434; relative viability (NCI-H1650; first compound 20 µM): 0.0427; relative viability (NCI-H1792; first compound 0.2 µM): 0.352; relative viability (NCI-H1792; first compound 0.6325 µM): 0.272; relative viability (NCI-H1792; first compound 6.325 µM): 0.238; relative viability (NCI-H1792; first compound 20 µM): 0.319; relative viability (NCI-H2087; first compound 0.2 µM): 0.315; relative viability (NCI-H2087; first compound 0.6325 µM): 0.332; relative viability (NCI-H2087; first compound 2 µM): 0.494; relative viability (NCI-H2087; first compound 6.325 µM): 0.463; relative viability (NCI-H2087; first compound 20 µM): 0.168; relative viability (NCI-H2126; first compound 0.2 µM): 0.568; relative viability (NCI-H2126; first compound 0.6325 µM): 0.532; relative viability (NCI-H2126; first compound 2 µM): 0.513; relative viability (NCI-H2126; first compound 6.325 µM): 0.577; relative viability (NCI-H2126; first compound 20 µM): 0.531; relative viability (NCI-H358; first compound 0.2 µM): 0.341; relative viability (NCI-H358; first compound 2 µM): 0.253; relative viability (NCI-H358; first compound 6.325 µM): 0.279; relative viability (NCI-H358; first compound 20 µM): 0.0042; relative viability (NCI-H522; first compound 0.2 µM): 0.626; relative viability (NCI-H522; first compound 0.6325 µM): 0.459; relative viability (NCI-H522; first compound 2 µM): 0.534; relative viability (NCI-H522; first compound 6.325 µM): 0.619; relative viability (NCI-H522; first compound 20 µM): 0.142; relative viability (NCI-H727; first compound 0.2 µM): 0.472; relative viability (NCI-H727; first compound 0.6325 µM): 0.395; relative viability (NCI-H727; first compound 2 µM): 0.387; relative viability (NCI-H727; first compound 6.325 µM): 0.342; relative viability (NCI-H727; first compound 20 µM): 0.124; relative viability (SK-MES-1; first compound 0.2 µM): 0.724; relative viability (SK-MES-1; first compound 0.6325 µM): 0.731; relative viability (SK-MES-1; first compound 2 µM): 0.722; relative viability (SK-MES-1; first compound 6.325 µM): 0.663; relative viability (SK-MES-1; first compound 20 µM): 0.615; relative viability (SW 1573; first compound 0.2 µM): 0.408; relative viability (SW 1573; first compound 0.6325 µM): 0.291; relative viability (SW 1573; first compound 2 µM): 0.393; relative viability (SW 1573; first compound 6.325 µM): 0.22; relative viability (SW 1573; first compound 20 µM): 0.0256; relative viability (SW 900; first compound 0.2 µM): 0.665; relative viability (SW 900; first compound 0.6325 µM): 0.61; relative viability (SW 900; first compound 2 µM): 0.492; relative viability (SW 900; first compound 6.325 µM): 0.0861; relative viability (SW 900; first compound 20 µM): 0.105
